Measured values as given in paper PMC12325145, “Preclinical evaluation of [^68Ga]Ga-AAZTA-FAPI-46: a novel PET tracer for targeting fibroblast activation protein (FAP)” (EJNMMI Radiopharmacy and Chemistry, 2025).

Molecular target: T1, fibroblast activation protein (FAP) (Mus musculus, UniProt P97321)
T1 construct: murine FAP stably expressed in HEK293 cells (pCMV6-Kan/Neo-mFAP, Origene MC206606)
T1 sequence (P97321 1-761): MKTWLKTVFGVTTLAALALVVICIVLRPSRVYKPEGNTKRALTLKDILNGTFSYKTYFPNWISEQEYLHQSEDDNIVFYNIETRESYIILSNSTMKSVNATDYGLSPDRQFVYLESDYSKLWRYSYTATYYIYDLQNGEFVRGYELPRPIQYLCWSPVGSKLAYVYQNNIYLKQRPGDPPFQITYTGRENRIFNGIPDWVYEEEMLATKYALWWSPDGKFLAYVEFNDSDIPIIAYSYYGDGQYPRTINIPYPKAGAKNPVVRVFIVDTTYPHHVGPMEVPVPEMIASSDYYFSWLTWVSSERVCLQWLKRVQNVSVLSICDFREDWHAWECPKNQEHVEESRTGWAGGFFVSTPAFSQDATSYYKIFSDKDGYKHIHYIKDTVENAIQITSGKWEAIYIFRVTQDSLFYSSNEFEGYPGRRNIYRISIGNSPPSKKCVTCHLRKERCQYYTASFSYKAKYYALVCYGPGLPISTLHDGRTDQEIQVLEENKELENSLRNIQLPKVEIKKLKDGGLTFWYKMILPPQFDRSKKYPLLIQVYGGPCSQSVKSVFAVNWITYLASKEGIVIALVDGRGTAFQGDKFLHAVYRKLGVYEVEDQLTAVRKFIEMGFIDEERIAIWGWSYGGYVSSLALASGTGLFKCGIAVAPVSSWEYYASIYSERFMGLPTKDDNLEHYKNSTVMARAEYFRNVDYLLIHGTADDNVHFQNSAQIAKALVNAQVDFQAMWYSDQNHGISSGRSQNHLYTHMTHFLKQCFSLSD
Experiment: radioligand competition with unlabelled tracer on HEK293T-FAP cells, […] °C, […] h
Format: cell-based

Compound: CN(CCCN1CCN(C(=O)CCCCC2(N(CC(=O)[O-])CC(=O)[O-])CN(CC(=O)[O-])CCN(CC(=O)[O-])C2)CC1)c1ccc2nccc(C(=O)NCC(=O)N3CC(F)(F)C[C@@H]3C#N)c2c1.[68Ga+3] [[^68Ga]Ga-AAZTA-FAPI-46]
- IC50: 4.61 ± 0.21 nM
